# Biological target: T1, LipN (Mycolicibacterium smegmatis, UniProt I7G6G5)
# T1 sequence (I7G6G5 1-378): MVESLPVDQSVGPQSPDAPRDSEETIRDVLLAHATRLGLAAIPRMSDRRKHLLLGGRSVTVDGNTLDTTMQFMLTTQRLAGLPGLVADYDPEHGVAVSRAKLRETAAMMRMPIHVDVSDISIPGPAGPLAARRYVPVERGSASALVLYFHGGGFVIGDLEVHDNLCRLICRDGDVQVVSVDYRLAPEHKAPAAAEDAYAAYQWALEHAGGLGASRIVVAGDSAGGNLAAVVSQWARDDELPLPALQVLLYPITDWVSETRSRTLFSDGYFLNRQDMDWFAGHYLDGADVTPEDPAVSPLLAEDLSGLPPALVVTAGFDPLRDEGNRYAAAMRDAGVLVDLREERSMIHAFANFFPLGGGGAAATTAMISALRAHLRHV
# Assay: fluorogenic ester hydrolysis, initial rates, Michaelis-Menten fit
# Format: biochemical
# Conditions: PBS pH 7.4, 0.1 mg/mL acetylated BSA, 25 C
smiles,measurement,value
"O=C(OCOc1ccc2c(c1)Oc1cc(OCOC(=O)c3cnco3)ccc1C21OC(=O)c2ccccc21)c1cnco1 [compound 7, substrate 7]",KM,Msmeg LipN has high enzymatic activity against the oxazole ester substrate
